According to patent US8580811B2 (Ligand Pharmaceuticals Incorporated, priority 2005, dated 2013):
Read-outs that look alike come from different tables or passages of the source.

Target: T1, human AR (Homo sapiens, UniProt P10275)
T1 construct: expressed in transfected cells; host or cells: COS-1 cells
T1 sequence (P10275 1-920): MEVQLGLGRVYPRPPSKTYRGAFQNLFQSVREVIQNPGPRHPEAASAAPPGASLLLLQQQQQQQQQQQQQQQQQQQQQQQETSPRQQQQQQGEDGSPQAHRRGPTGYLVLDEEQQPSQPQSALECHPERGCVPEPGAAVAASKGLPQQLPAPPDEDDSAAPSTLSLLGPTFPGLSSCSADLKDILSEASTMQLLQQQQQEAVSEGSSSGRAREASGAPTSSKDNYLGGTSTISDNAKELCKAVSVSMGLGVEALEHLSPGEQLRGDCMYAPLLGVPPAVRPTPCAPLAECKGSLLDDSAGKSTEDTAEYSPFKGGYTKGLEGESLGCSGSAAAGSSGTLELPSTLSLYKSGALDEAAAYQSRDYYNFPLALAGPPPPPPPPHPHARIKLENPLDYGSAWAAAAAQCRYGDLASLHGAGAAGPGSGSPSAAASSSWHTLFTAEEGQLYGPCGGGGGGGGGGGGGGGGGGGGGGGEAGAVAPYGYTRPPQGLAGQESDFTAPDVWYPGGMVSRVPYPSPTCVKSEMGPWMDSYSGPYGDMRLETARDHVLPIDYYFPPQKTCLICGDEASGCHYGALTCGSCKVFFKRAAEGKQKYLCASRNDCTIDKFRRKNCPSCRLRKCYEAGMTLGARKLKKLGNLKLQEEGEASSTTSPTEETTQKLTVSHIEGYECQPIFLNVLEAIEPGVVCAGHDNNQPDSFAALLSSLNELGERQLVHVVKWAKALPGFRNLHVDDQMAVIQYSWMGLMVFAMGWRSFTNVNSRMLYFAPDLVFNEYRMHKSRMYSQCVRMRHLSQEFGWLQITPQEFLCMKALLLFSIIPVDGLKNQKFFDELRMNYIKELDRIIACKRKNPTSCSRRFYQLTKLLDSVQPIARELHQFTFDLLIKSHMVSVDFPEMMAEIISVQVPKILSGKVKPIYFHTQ
Assay: IR Binding Assay: whole cell competitive binding of test compounds against 3H-DHT in COS-1 cells transfected with pRShAR
In short: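 COS-1 cells transfected with pRShAR plus β-Gal reporter, serum-starved 24 h, then exposed to 1 nM ³H-DHT with compounds at 10^−10 to 10^−6 M for 3 h at 37 °C. Bound ³H-DHT counted in lysates, normalized to β-Gal. IC50 from log-logit plot; Ki via Cheng-Prusoff using Kd from Scatchard saturation analysis.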

[1] = competition with 1 nM 3H-DHT, transfected COS-1 cells, 3 h at 37° C., Cheng-Prusoff from IC50, read-out: Ki

For `CC1c2c(ccc3[nH]c(=O)cc(Cl)c23)N(CC(F)(F)F)C1c1cccc([N+](=O)[O-])c1` (racemic) [Compound 154, (±)-9-Chloro-1-methyl-2-(3-nitrophenyl)-3-(2,2,2-trifluoroethyl)-1,2,3,6-tetrahydro-pyrrolo[3,2-f]quinolin-7-one], the Ki was > 10 nM.
For `Cc1c(C)n(CCc2cccs2)c2ccc3[nH]c(=O)cc(Cl)c3c12` [Compound 189, 9-Chloro-1,2-dimethyl-3-(2-thien-2-yl-ethyl)-3,6-dihydro-pyrrolo[3,2-f]quinolin-7-one], the Ki was > 10 nM.
In the case of `CCc1c(C)c2c3c(C(F)(F)F)cc(=O)[nH]c3ccc2n1CCCO` [Compound 286], the Ki is reported as < 5 nM.
With `CCc1c(C)c2c3c(C(F)(F)F)cc(=O)[nH]c3ccc2n1CC(O)C(F)(F)F` (racemic) [Compound 247, (±)-2-Ethyl-1-methyl-3-(3,3,3-Trifluoro-2-hydroxy-propyl)-9-trifluoromethyl-3,6-dihydro-pyrrolo[3,2-f]quinolin-7-one] the Ki was < 5 nM.
For `CC1c2c(ccc3[nH]c(=O)cc(Cl)c23)N(Cc2ccccc2)C1C` (racemic) [Compound 144, (±)-9-Chloro-1,2-dimethyl-3-phenylmethyl-1,2,3,6-tetrahydro-pyrrolo[3,2-f]quinolin-7-one], the Ki was 5 to 10 nM.
`CCn1cc(C)c2c3c(Cl)cc(=O)[nH]c3ccc21` [Compound 193, 9-Chloro-3-ethyl-1-methyl-3,6-dihydro-pyrrolo[3,2-f]quinolin-7-one] was tested, and the Ki was 5 to 10 nM.
In the case of `CC1c2c(ccc3[nH]c(=O)cc(Cl)c23)N(CC(F)(F)F)C1c1cccc(Cl)c1` (racemic) [Compound 146, (±)-9-Chloro-2-(3-chlorophenyl)-1-methyl-3-(2,2,2-trifluoroethyl)-1,2,3,6-tetrahydro-pyrrolo[3,2-f]quinolin-7-one], the Ki is reported as > 10 nM.
With `CC1Nc2ccc3[nH]c(=O)cc(Cl)c3c2C1C` (racemic) [Compound 140, (±)-9-Chloro-1,2-dimethyl-1,2,3,6-tetrahydro-pyrrolo[3,2-f]quinolin-7-one] the Ki was > 10 nM.
With `CC1c2c(ccc3[nH]c(=O)cc(Cl)c23)N(CC(F)(F)F)C1c1ccc(F)cc1` (racemic) [Compound 149, (±)-9-Chloro-2-(4-fluoro-phenyl)-1-methyl-3-(2,2,2-trifluoroethyl)-1,2,3,6-tetrahydro-pyrrolo[3,2-f]quinolin-7-one] the Ki was 5 to 10 nM.
With `Cc1ccc(-c2c(C)c3c4c(Cl)cc(=O)[nH]c4ccc3n2CC(F)(F)F)s1` [Compound 258, 9-Chloro-1-methyl-2-(5-methyl-2-thiophenyl)-3-(2,2,2-trifluoroethyl)-3,6-dihydro-pyrrolo[3,2-f]quinolin-7-one] the Ki was < 5 nM.
With `CC1c2c(ccc3[nH]c(=O)cc(Cl)c23)N(CC(F)(F)F)C1c1cccs1` (racemic) [Compound 161, (±)-9-Chloro-1-methyl-2-(thien-2-yl)-3-(2,2,2-trifluoroethyl)-1,2,3,6-tetrahydro-pyrrolo[3,2-f]quinolin-7-one] the Ki was < 5 nM.
With `Cc1c(C)n(CCCBr)c2ccc3[nH]c(=O)cc(C(F)(F)F)c3c12` [Compound 288, 3-(3-Bromopropyl)-1,2-dimethyl-9-trifluoromethyl-3,6-dihydro-pyrrolo[3,2-f]-quinolin-7-one] the Ki was < 5 nM.
`Cc1c(C)n(CCOCCOCCO)c2ccc3[nH]c(=O)cc(C(F)(F)F)c3c12` [Compound 298, 3-{2-[2-(2-Hydroxy-ethoxy)-ethoxy]-ethyl}-1,2-dimethyl-9-trifluoromethyl-3,6-dihydro-pyrrolo[3,2-f]quinolin-7-one] was tested, and the Ki was > 10 nM.
`CC1c2c(ccc3[nH]c(=O)cc(Cl)c23)N(CCO)C1C` (racemic) [Compound 139, (±)-9-Chloro-1,2-dimethyl-3-(2-hydroxyethyl)-1,2,3,6-tetrahydro-pyrrolo[3,2-f]-quinolin-7-one] was tested, and the Ki was > 10 nM.
In the case of `Cc1c(CCCI)c2c3c(Cl)cc(=O)[nH]c3ccc2n1CC(F)(F)C(F)(F)F` [Compound 270, 9-Chloro-1-(3-iodopropyl)-2-methyl-3-(2,2,3,3,3-pentafluoropropyl)-3,6-dihydro-pyrrolo[3,2-f]quinolin-7-one], the Ki is reported as > 10 nM.
For `O=c1cc(Cl)c2c3c(ccc2[nH]1)N(CC(F)(F)F)[C@H]1CCC[C@@H]31` [Compound 163, (−)-9-Chloro-3-(2,2,2-trifluoroethyl)-1,2-trimethylene-1,2,3,6-tetrahydropyrrolo[3,2-f]-quinolin-7-one], the Ki was > 10 nM.
With `C=CCn1c(C)c(C)c2c3c(C(F)(F)F)cc(=O)[nH]c3ccc21` [Compound 236, 3-Allyl-1,2-dimethyl-9-trifluoromethyl-3,6-dihydro-pyrrolo[3,2-f]quinolin-7-one] the Ki was < 5 nM.
In the case of `CC1c2c(ccc3[nH]c(=O)cc(Cl)c23)N(CC(F)(F)F)C1c1ccc(F)cc1F` (racemic) [Compound 150, (±)-9-Chloro-2-(2,4-difluorophenyl)-1-methyl-3-(2,2,2-trifluoroethyl)-1,2,3,6-tetrahydropyrrolo-[3,2-f]quinolin-7-one], the Ki is reported as > 10 nM.
In the case of `Cc1ccc(-c2c(C)c3c4c(Cl)cc(=O)[nH]c4ccc3n2C[C@@H](O)C(F)(F)F)o1` [Compound 284, (R)-9-Chloro-1-methyl-2-(5-methylfuran-2-yl)-3-(3,3,3-trifluoro-2-hydroxy-propyl)-3,6-dihydro-pyrrolo[3,2-f]quinolin-7-one], the Ki is reported as < 5 nM.
With `Cc1c(C)n(CC(F)(F)C(F)(F)F)c2ccc3[nH]c(=O)cc(Cl)c3c12` [Compound 215, 9-Chloro-1,2-dimethyl-3-(2,2,3,3,3-pentafluoropropyl)-3,6-dihydro-pyrrolo[3,2-f]-quinolin-7-one] the Ki was < 5 nM.
In the case of `CC(=O)c1[nH]c2ccc3[nH]c(=O)cc(Cl)c3c2c1C` [Compound 121, 2-Acetyl-9-chloro-1-methyl-3,6-dihydro-pyrrolo[3,2-f]quinolin-7-one], the Ki [1] is reported as > 10 nM.
`Cc1c(-c2cccs2)[nH]c2ccc3[nH]c(=O)cc(Cl)c3c12` [Compound 120, 9-Chloro-1-methyl-2-thien-2-yl-3,6-dihydro-pyrrolo[3,2-f]quinolin-7-one] was tested, and the Ki [1] was > 10 nM.
`Cc1c(-c2ccccc2)n(CCC(F)(F)F)c2ccc3[nH]c(=O)cc(Cl)c3c12` [Compound 217, 9-Chloro-1-methyl-2-phenyl-3-(3,3,3-trifluoropropyl)-3,6-dihydropyrrolo[3,2-f]-quinolin-7-one] was tested, and the Ki was < 5 nM.
For `Cc1c(-c2ccc(F)cc2)[nH]c2ccc3[nH]c(=O)cc(Cl)c3c12` [Compound 116, 9-Chloro-2-(4-fluorophenyl)-1-methyl-3,6-dihydro-pyrrolo[3,2-f]quinolin-7-one], the Ki was < 5 nM.
With `CC1c2c(ccc3[nH]c(=O)cc(Cl)c23)N(CC(F)(F)F)C1c1cc(C(F)(F)F)cc(C(F)(F)F)c1` (racemic) [Compound 158, (±)-9-Chloro-2-(3,5-bis(trifluoromethyl)phenyl)-1-methyl-3-(2,2,2-trifluoroethyl)-1,2,3,6-tetrahydropyrrolo[3,2-f]quinolin-7-one] the Ki was < 5 nM.
`CCCc1c(C)[nH]c2ccc3[nH]c(=O)cc(Cl)c3c12` [Compound 124, 9-Chloro-2-methyl-1-propyl-3,6-dihydro-pyrrolo[3,2-f]quinolin-7-one] was tested, and the Ki was > 10 nM.
For `Cc1c(C)n(CC(O)CO)c2ccc3[nH]c(=O)cc(C(F)(F)F)c3c12` (stereo not shown) [Compound 293, 3-(2,3-dihydroxypropyl)-1,2-dimethyl-9-trifluoromethyl-3,6-dihydro-pyrrolo[3,2-f]-quinolin-7-one], the Ki was > 10 nM.
With `CC1c2c(ccc3[nH]c(=O)cc(Cl)c23)N(CCc2cccs2)C1C` (racemic) [Compound 142, (±)-9-Chloro-1,2-dimethyl-3-(2-thien-2-yl-ethyl)-1,2,3,6-tetrahydro-pyrrolo[3,2-f]-quinolin-7-one] the Ki was < 5 nM.
`Cc1c(-c2cccs2)n(CC(F)(F)C(F)(F)F)c2ccc3[nH]c(=O)cc(Cl)c3c12` [Compound 259, 9-Chloro-1-methyl-3-(2,2,3,3,3-pentafluoropropyl)-2-thiophen-2-yl-3,6-dihydro-pyrrolo[3,2-f]quinolin-7-one] was tested, and the Ki was > 10 nM.
For `CC1c2c(ccc3[nH]c(=O)cc(C(F)(F)F)c23)N(CCCC(F)(F)F)C1C` (racemic) [Compound 182, (±)-1,2-Dimethyl-3-(4,4,4-trifluorobutyl)-9-trifluoromethyl-1,2,3,6-tetrahydro-pyrrolo[3,2-f]quinolin-7-one], the Ki was < 5 nM.
`Cc1c(C)n(C)c2ccc3[nH]c(=O)cc(Cl)c3c12` [Compound 208, 9-Chloro-1,2,3-trimethyl-3,6-dihydro-pyrrolo[3,2-f]quinolin-7-one] showed a Ki of 5 to 10 nM.
